Source: patent US20110183995A1, “ELTOPRAZINE FOR SUPPRESSION OF L-DOPA INDUCED DYSKINESIAS” (Neurosearch A/S, priority 2008, published 2011)

What was measured:
[1] = system: 6-OHDA-lesioned rats; test: Antidyskinetic effect of Eltoprazine in the rat 6-OHDA model (L-DOPA-induced dyskinesia, total AIM score); type: in vivo; conditions: for reduction of dyskinesia (total score: limb, axial and orolingual): compared to the control L-DOPA-only treated group, two-hour test
Procedure: In this experiment we determined the antidyskinetic properties of Eltoprazine.
6-OHDA-lesioned rats were made dyskinetic and allocated into three well-balanced groups (n=6 per group), which were challenge on the day of the experiments with L-DOPA-only, L-DOPA plus Eltoprazine 0.1 mg/kg or L-DOPA plus Eltoprazine 0.3 mg/kg, respectively.
Limb, axial and orolingual dyskinesias were scored over the tow-hour test and the sum is reported here as the total score, and the results are presented in FIG. 4.

[2] = system: PD patients; conditions: large phase III clinical trial, terminated; cited from earlier work

| SMILES | reduction of dyskinesia (total score: limb, axial and orolingual) ([1]; Eltoprazine 0.1 mg/kg plus L-DOPA) | reduction of dyskinesia (total score: limb, axial and orolingual) ([1]; Eltoprazine 0.3 mg/kg plus L-DOPA) | suppression of L-DOPA-induced dyskinesia ([1]; rats, higher dose alone) | clinical antidyskinetic efficacy [2] |
| --- | --- | --- | --- | --- |
| c1cc2c(c(N3CCNCC3)c1)OCCO2 [Eltoprazine, 1-(2,3-Dihydro-benzo[1,4]dioxin-5-yl)piperazine] | approximately 50% | near-complete abolishment | near-complete suppression |  |
| Fc1ccc(-c2cncc(CNC[C@H]3CCc4ccccc4O3)c2)cc1 [Sarizotan] |  |  |  | lack of efficacy |
